Consider 4 compounds from patent US8846949B2, “Pyrrolopyrazoles as N-type calcium channel blockers” (Janssen Pharmaceutica NV, priority 2012, dated 2014).

Structures are written as SMILES. Like-named read-outs stand apart in the source and are kept apart here.

For assay [1], the target named is T1, N-type calcium channel α1B (Cav2.2), β3 and α2δ subunits (Homo sapiens, UniProt Q00975).
T1 construct: expressed in transfected cells
The experiment in a line: Functional assay, antagonism of N-type calcium channel (FDSS calcium mobilization response to KCl depolarization). The format is cell-based. As to conditions: for IC50: HEK stable cell line, 50 mM KCl depolarization, six-point concentration-response; for inhibition at 0.33 µM: 0.33 μM compound, FDSS, 50 mM KCl. Put shortly: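 HEK cells stably co-expressing α1B (Cav2.2), β3 and α2δ subunits were loaded with calcium dye, preincubated with compound for 5 min, then depolarized with 50 mM KCl and read for 3 min by FDSS fluorescence. IC50 from six-point curves, normalized to KCl maximum and buffer minimum.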

A further assay has as its target T2, N-type calcium channel (Homo sapiens, UniProt Q00975).
T2 construct: expressed in transfected cells
The experiment in a line: Automated electrophysiology assay (QPatch-HT whole-cell patch clamp). Format: cell-based. As to conditions: 0.1 μM. Put shortly:
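Whole-cell QPatch recordings used 10 mM Ba²⁺/TEA external solution and CsCl internal solution. Trains of 15 pulses at 5 Hz to +20 mV from −80 mV were applied; 1st- and 15th-pulse currents were normalized to control, with CdCl2 zeroing. […]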

[2] abbreviates: high frequency (15th pulse of train, 5 Hz), read-out: QPatch at High Frequency % Inhibition.
[3] abbreviates: low frequency (1st pulse of train), read-out: QPatch at Low Frequency % Inhibition.

T1 sequence (Q00975 whole entry): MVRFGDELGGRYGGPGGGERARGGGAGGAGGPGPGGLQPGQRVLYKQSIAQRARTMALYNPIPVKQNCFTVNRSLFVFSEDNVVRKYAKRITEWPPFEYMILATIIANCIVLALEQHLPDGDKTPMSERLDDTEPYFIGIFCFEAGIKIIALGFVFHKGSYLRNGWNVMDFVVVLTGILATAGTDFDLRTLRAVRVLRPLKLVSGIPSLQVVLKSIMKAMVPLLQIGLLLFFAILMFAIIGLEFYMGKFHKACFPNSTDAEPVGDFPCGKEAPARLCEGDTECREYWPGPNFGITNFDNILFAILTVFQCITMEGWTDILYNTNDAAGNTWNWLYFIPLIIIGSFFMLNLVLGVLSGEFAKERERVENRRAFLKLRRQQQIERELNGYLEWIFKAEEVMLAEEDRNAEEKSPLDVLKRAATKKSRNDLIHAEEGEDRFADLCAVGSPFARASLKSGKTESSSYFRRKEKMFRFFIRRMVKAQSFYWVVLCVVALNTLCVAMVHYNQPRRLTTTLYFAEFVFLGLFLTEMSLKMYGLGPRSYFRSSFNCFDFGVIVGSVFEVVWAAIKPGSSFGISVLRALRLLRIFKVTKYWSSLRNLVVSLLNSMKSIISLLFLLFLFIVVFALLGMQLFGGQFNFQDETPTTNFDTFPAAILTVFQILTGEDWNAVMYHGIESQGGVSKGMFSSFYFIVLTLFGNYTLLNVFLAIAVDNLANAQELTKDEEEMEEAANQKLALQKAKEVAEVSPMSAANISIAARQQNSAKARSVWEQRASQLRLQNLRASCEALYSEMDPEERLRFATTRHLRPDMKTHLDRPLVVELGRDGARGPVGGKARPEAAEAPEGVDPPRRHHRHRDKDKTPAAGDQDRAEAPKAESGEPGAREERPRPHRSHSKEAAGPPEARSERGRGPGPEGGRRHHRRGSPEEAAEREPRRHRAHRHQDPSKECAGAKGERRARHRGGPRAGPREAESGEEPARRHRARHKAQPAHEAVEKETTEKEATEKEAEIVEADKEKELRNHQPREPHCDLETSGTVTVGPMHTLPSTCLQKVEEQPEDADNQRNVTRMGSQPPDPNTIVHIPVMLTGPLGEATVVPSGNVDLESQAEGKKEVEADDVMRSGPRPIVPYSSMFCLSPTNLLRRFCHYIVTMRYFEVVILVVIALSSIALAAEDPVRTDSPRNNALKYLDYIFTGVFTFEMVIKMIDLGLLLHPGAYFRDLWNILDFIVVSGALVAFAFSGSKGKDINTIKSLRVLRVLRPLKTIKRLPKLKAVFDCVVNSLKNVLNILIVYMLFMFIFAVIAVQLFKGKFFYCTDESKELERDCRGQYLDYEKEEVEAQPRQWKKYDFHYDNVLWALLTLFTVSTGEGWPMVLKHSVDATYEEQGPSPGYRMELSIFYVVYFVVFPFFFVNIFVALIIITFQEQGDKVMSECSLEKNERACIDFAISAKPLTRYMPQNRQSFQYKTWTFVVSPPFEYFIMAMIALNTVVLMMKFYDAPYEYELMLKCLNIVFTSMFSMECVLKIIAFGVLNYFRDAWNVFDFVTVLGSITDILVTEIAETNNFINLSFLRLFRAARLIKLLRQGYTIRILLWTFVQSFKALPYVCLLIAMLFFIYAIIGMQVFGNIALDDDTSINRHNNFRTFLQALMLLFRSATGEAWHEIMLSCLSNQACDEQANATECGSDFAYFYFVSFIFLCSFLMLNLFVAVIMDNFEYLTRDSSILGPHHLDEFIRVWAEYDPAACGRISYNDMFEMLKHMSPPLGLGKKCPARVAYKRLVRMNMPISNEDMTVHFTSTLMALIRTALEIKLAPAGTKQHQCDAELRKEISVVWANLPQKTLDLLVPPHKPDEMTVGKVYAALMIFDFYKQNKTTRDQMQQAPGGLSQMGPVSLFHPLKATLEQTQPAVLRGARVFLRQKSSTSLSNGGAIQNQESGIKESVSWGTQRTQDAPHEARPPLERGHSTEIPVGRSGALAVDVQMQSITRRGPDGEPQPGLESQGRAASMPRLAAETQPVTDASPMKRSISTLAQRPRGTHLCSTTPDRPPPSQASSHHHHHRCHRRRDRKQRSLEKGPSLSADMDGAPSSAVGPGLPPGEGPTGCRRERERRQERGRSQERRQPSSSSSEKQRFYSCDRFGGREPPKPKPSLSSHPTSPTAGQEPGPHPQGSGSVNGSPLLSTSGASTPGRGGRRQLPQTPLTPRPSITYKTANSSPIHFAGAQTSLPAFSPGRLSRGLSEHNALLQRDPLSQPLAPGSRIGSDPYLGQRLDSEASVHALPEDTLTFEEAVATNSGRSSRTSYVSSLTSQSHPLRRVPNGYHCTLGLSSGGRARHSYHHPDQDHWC
T1 sequence (P54284 whole entry partner): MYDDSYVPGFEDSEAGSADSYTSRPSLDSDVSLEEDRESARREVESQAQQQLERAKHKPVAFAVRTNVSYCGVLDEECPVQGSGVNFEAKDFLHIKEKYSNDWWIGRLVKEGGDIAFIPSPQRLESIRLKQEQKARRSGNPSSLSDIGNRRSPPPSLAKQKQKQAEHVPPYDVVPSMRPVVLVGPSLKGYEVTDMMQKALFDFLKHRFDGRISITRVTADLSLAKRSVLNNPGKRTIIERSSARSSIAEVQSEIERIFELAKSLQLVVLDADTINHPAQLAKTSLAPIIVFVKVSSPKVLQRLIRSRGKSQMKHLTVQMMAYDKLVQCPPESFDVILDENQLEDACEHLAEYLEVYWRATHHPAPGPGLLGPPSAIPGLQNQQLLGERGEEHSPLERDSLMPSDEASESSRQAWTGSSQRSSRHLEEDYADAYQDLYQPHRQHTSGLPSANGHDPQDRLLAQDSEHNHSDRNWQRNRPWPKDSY
T1 sequence (P54289 25-956 partner limits assumed): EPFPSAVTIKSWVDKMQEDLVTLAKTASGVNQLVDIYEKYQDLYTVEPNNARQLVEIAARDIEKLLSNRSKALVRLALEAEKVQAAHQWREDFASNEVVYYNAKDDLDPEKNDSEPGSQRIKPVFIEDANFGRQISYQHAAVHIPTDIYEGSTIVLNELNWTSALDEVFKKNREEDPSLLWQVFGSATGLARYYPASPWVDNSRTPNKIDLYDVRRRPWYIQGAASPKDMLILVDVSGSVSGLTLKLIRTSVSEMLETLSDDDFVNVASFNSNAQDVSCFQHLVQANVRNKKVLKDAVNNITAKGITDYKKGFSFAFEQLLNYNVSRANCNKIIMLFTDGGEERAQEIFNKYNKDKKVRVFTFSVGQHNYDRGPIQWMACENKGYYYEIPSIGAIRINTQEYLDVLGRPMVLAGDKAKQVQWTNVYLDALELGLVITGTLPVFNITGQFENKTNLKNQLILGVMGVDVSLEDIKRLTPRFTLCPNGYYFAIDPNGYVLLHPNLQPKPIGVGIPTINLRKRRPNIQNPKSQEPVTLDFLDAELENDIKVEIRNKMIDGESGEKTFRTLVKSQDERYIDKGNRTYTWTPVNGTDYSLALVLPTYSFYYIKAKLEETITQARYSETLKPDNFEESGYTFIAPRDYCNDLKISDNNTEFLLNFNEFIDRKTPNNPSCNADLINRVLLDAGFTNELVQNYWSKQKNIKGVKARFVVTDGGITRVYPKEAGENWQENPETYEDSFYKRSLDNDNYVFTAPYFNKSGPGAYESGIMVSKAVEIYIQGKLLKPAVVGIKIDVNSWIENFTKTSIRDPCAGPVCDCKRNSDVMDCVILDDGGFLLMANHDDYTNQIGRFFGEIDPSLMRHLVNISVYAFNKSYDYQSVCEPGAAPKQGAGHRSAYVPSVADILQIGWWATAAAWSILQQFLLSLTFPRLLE
T1 sequence (P54289 957-1103 partner limits assumed): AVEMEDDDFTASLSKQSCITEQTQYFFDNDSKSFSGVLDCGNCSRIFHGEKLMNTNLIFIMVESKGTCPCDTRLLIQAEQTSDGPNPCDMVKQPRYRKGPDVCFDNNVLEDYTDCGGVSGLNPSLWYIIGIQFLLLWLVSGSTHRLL
T2 sequence (Q00975 whole entry): as the sequence (Q00975 whole entry) above
T2 sequence (P54284 whole entry partner): as the sequence (P54284 whole entry partner) above
T2 sequence (P54289 25-956 partner limits assumed): as the sequence (P54289 25-956 partner limits assumed) above
T2 sequence (P54289 957-1103 partner limits assumed): as the sequence (P54289 957-1103 partner limits assumed) above

Turning to `COc1ccccc1-n1nc2c(c1-c1ccc(Cl)cc1)CN(S(=O)(=O)N1CCOCC1)C2` [Cpd 59, 3-(4-Chlorophenyl)-2-(2-methoxyphenyl)-5-(morpholin-4-ylsulfonyl)-2,4,5,6-tetrahydropyrrolo[3,4-c]pyrazole], the IC50 (as a rule, the concentration that inhibits the measured activity by half) in assay [1] turned out to be 2 nM. For the same compound, the inhibition (as a rule, the change of the read-out against control, counted positive when it falls) at 0.1 µM at N-type calcium channel (setting [2]) is 51%; on N-type calcium channel (setting [3]) it was 28%.
For `COc1cc(F)ccc1-n1nc2c(c1-c1ccc(Cl)cc1)CN(S(=O)(=O)N1CCC(C)CC1)C2` [Cpd 73, 3-(4-Chlorophenyl)-2-(4-fluoro-2-methoxyphenyl)-5-[(4-methylpiperidin-1-yl)sulfonyl]-2,4,5,6-tetrahydropyrrolo[3,4-c]pyrazole], in assay [1], the inhibition at 0.33 µM turned out to be 93% and the IC50 amounted to 24 nM. Also, the inhibition at 0.1 µM at N-type calcium channel (setting [2]) is -28%. The inhibition at 0.1 µM at N-type calcium channel (setting [3]) is -34%.
Take `COc1ccccc1-n1nc2c(c1-c1ccc(Cl)cc1)CN(S(=O)(=O)N1CCCCC1)C2` [Cpd 62, 3-(4-Chlorophenyl)-2-(2-methoxyphenyl)-5-(piperidin-1-ylsulfonyl)-2,4,5,6-tetrahydropyrrolo[3,4-c]pyrazole]: the IC50 in assay [1] came to 4 nM. The inhibition at 0.1 µM at N-type calcium channel (setting [2]) turned out to be 45%; on N-type calcium channel (setting [3]) it was 20%.
Turning to `COc1ccccc1-n1nc2c(c1-c1ccc(Cl)cc1)CN(S(=O)(=O)c1c(C)noc1C)C2` [Cpd 87, 3-(4-Chlorophenyl)-5-[(3,5-dimethylisoxazol-4-yl)sulfonyl]-2-(2-methoxyphenyl)-2,4,5,6-tetrahydropyrrolo[3,4-c]pyrazole], in assay [1], the inhibition at 0.33 µM was determined as 89% and the half-maximal inhibitory concentration (IC50) was determined as 17 nM. Besides, at N-type calcium channel (setting [2]), the inhibition at 0.1 µM is 49%. Also, on N-type calcium channel (setting [3]), the inhibition at 0.1 µM came out at 31%.
